Assay results from PubChem BioAssay AID434951 (Broad Institute, 2010).
Activity calls are given as the source filed them.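 How the source made its calls: active means a fitted half-maximal concentration EC50 for the rise in nuclear signal no higher than ten times the top dose tested; inconclusive means flat fit with activity between 30% and 70%, or unusable fit; inactive means EC50 beyond ten times the top dose.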

These compounds were tested against Hypoxia-inducible factor 1-alpha (Homo sapiens) (UniProt Q16665) (assay: HIF pathway activation, GFP-HIF1alpha translocation – imaging, fluorescence, U2OS GFP-HIF1alpha, confirmation (AID 434951)). Conditions: U2OS GFP-HIF1alpha nuclear intensity, high-content imaging.
Hypoxia-inducible factor 1-alpha (Homo sapiens), sequence (Q16665 whole entry, looked up): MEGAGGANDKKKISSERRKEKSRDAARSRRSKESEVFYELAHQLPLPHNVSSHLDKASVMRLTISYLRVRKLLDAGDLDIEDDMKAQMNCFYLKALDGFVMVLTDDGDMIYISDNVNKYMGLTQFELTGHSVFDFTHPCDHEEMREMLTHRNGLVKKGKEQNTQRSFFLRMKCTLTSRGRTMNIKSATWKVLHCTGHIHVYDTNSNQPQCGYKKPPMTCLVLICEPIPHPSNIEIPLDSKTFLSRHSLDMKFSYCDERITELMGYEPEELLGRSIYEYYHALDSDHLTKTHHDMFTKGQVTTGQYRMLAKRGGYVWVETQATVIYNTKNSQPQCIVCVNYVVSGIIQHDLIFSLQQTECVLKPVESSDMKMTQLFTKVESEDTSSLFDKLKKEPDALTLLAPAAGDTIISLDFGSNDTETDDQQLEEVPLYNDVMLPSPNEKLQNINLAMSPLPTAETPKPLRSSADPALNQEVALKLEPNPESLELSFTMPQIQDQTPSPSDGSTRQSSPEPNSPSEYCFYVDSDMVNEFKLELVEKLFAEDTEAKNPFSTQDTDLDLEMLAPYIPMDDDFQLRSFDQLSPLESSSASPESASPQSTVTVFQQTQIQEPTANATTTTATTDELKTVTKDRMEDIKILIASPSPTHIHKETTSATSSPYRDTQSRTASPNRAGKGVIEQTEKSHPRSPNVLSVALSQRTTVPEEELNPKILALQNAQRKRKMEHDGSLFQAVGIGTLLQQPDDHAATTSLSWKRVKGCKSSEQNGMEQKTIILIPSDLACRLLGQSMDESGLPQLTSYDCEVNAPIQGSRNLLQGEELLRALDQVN
`CNc1nc(-c2ccccn2)nnc1-c1ccccc1` showed an EC50 of 7.4 µM.
In the case of `CCN(CC)S(=O)(=O)c1ccc(N/N=C/c2ccc(O)cc2O)nc1`, the EC50 is reported as 0.715 µM.
In the case of `O=C(CCc1nnc(-c2ccccc2)o1)c1ccc(Cl)cc1`, the EC50 is reported as > 35 µM (inactive).
Compound `Cc1cc(C)c2c(N)c3ccccc3nc2n1` has an EC50 of 17.4 µM.
With `Cc1ccc(/C=N/NC(=O)c2ccc(Br)o2)s1` the EC50 was > 35 µM (inactive).
`O=C(N/N=C/C(Br)=C\c1ccccc1)c1n[nH]c2c1CCC2` was tested, and the EC50 was 7.85 µM.
With `O=C(C1=NN[C@@H]2C(=O)N(c3cccc(C(F)(F)F)c3)C(=O)[C@H]12)C(c1ccccc1)c1ccccc1` the EC50 was > 35 µM (inactive).
In the case of `Cc1cc(C)c2nc(N3CCN(C(=O)c4ccco4)CC3)sc2c1`, the EC50 is reported as > 35 µM (inactive).
With `CCOc1ccc(N2CC(C(=O)Nc3ccccc3C(=O)NC3CC3)CC2=O)cc1` (centres undefined) the EC50 was > 35 µM (inactive).
With `COC(=O)C(NC(=O)c1c(C)nn(C)c1Cl)c1ccccc1` (centres undefined) the EC50 was > 35 µM (inactive).
With `O=C(c1ccc(-c2nnc(-c3ccccc3)o2)cc1)N1CCCCCC1` the EC50 was > 35 µM (inactive).
With `CC[n+]1c(S(=O)(=O)[O-])ccc2ccc(C)cc21` the EC50 was > 35 µM (inactive).
`CCCCn1c(/C=N/Nc2nc3ccccc3[nH]2)nc2ccccc21` was tested, and the EC50 was 7.81 µM.
`COc1cccc2sc(Nc3nc(-c4ccccn4)cs3)nc12` gave an EC50 of 6.13 µM.
With `CCOP(=O)(C#CC(C)(C)C)C1(O)CCCCC1` (centres undefined) the EC50 was > 35 µM (inactive).
In the case of `CC(=O)c1ccc(N2C(=NC(=O)COc3ccccc3)SC3CS(=O)(=O)CC32)cc1` (centres undefined), the EC50 is reported as > 35 µM (inactive).
With `Cc1ccccc1NC(=O)c1ccccc1O` the EC50 was > 35 µM (inactive).
For `COC(=O)C1=C(C)N(Cc2ccc(OC)cc2)C(=O)C1`, the EC50 was > 35 µM (inactive).
In the case of `C=CCn1c(N2CCCCCC2)nc2c1c(=O)[nH]c(=O)n2C`, the EC50 is reported as > 35 µM (inactive).
For `Cc1ccc(OCCNC(=O)CCc2nc3sc4c(c3c(=O)[nH]2)CCCC4)cc1`, the EC50 was > 35 µM (inactive).
`COC(=O)/C(=C(/F)SCC(C)=O)C(F)(F)F` was tested, and the EC50 was > 35 µM (inactive).
With `Cc1nn(C(=O)c2cccnc2)c(C)c1Sc1ccccc1` the EC50 was > 35 µM (inactive).
Compound `Cc1nnsc1C(=O)N/N=C/c1ccc2ccccc2c1O` has an EC50 of 3.13 µM.
With `COc1cccc(C(NC(C)=O)c2ccc3cccnc3c2O)c1` (centres undefined) the EC50 was 5.94 µM.
In the case of `CCOc1ccccc1NC(=O)CSc1ncnc2c1oc1ccccc12`, the EC50 is reported as > 35 µM (inactive).
With `O=C(COc1ccccc1)N(Cc1cccc(F)c1)C1CCS(=O)(=O)C1` (centres undefined) the EC50 was > 35 µM (inactive).
`Cc1ccc(-c2cc(C(F)(F)F)n3nc(C(=O)Nc4c(C)n(C)n(-c5ccccc5)c4=O)cc3n2)cc1` was tested, and the EC50 was > 35 µM (inactive).
`COc1ccccc1NC(=O)C1CCN(C(=O)c2ccc(C(C)(C)C)cc2)CC1` was tested, and the EC50 was > 35 µM (inactive).
With `CCC1CCc2sc(C(=O)NCc3ccccn3)cc2C1` (centres undefined) the EC50 was > 35 µM (inactive).
In the case of `c1ccc(-c2nnc3sc(-c4cc5ccccc5o4)nn23)cc1`, the EC50 is reported as > 35 µM (inactive).
Compound `CC(C)CC(=O)NC(c1cccs1)c1ccc2cccnc2c1O` (centres undefined) has an EC50 of 6.26 µM.
With `CCC(Sc1nc(C)cc(=O)[nH]1)C(=O)Nc1sc2c(c1C#N)CCCC2` (centres undefined) the EC50 was > 35 µM (inactive).
`NS(=O)(=O)c1ccc(NC(=O)c2ccc(CSc3ccccc3)o2)cc1` was tested, and the EC50 was > 35 µM (inactive).
In the case of `COc1cccc(/C=N/NC(=O)c2ccc([N+](=O)[O-])cc2Cl)c1O`, the EC50 is reported as > 35 µM (inactive).
`O=C(COc1ccc(Cl)cc1Cl)N/N=C/CCc1ccccc1` was tested, and the EC50 was > 35 µM (inactive).
In the case of `CC(C(=O)N1CCOCC1)N1c2cccc3cccc(c23)S1(=O)=O` (centres undefined), the EC50 is reported as > 35 µM (inactive).
For `CCCCn1c(=O)[nH]c(=O)c2c(C(=O)OCC)cc(-c3cccs3)nc21`, the EC50 was > 35 µM (inactive).
With `O=C(NCc1ccccc1)C(=O)c1cn(CC(=O)N2CCOCC2)c2ccccc12` the EC50 was > 35 µM (inactive).
`CC1CN(c2nc3ccccn3c(=O)c2/C=C(\C#N)C(=O)N2CCOCC2)CC(C)O1` (centres undefined) was tested, and the EC50 was > 35 µM (inactive).
With `Cc1cc(N/N=C/c2ccc(O)cc2O)nc(-c2ccccc2O)n1` the EC50 was 4.53 µM.
In the case of `Cc1ccccc1CN1C(=O)CSc2ccc(C(=O)N3CCOCC3)cc21`, the EC50 is reported as > 35 µM (inactive).
For `Cc1cccc(C(=O)O/N=C(\N)c2ccc(Cl)cc2)c1`, the EC50 was > 35 µM (inactive).
`O=C(Cn1nc(-c2ccccc2Cl)ccc1=O)Nc1ccccc1-c1ccccc1` was tested, and the EC50 was > 35 µM (inactive).
`CCCCCCn1nc(C(=O)Nc2nc3c(s2)CCCC3)c2ccccc2c1=O` was tested, and the EC50 was > 35 µM (inactive).
Work on `c1ccc(Cc2nnc(-c3ccccc3)o2)cc1` yielded an EC50 of 17.7 µM.
For `O=C(Nc1ccccc1O)c1ccc(NC(=O)C2CC2)cc1`, the EC50 was 10.8 µM.
`Cc1ccc(-c2nnc(Sc3nc4ccccc4o3)c3ccccc23)cc1` showed an EC50 of 16.9 µM.
For `CS(=O)(=O)c1ccc2nc(NC(=O)C3CC(=O)N(c4ccc(F)cc4)C3)sc2c1` (centres undefined), the EC50 was > 35 µM (inactive).
For `COc1ccc(C(=O)N/N=C(\c2ccccc2)c2ccccn2)cc1`, the EC50 was 11.5 µM.
`CCOc1ccc(NC(=O)CC2C(=O)Nc3ccccc3N2C(=O)c2ccccc2)cc1` (centres undefined) was tested, and the EC50 was > 35 µM (inactive).
In the case of `CC(C)c1ccc(NC(=O)CCc2ccccc2)cc1`, the EC50 is reported as > 35 µM (inactive).
With `CCCCNC(=O)CN1C(=O)COc2ccc(S(=O)(=O)N3CCCCCC3)cc21` the EC50 was > 35 µM (inactive).
Work on `CCN(CC)c1ccc(/C=N/NC(=O)c2cnccn2)c(O)c1` yielded an EC50 of 9.54 µM.
In the case of `CNc1c2c(nn1C)CCCC2`, the EC50 is reported as > 35 µM (inactive).
With `Cc1ccc(C(=O)NC2CC3CCCC(C2)N3Cc2ccccc2)cc1` (centres undefined) the EC50 was > 35 µM (inactive).
With `Cc1ccc(C(=O)Nc2c3c(nn2C(C)(C)C)CS(=O)(=O)C3)cc1C` the EC50 was > 35 µM (inactive).
With `Cc1ccc(-c2cc(N)n(-c3ccc(F)cc3)n2)cc1` the EC50 was > 35 µM (inactive).
For `COC(=O)CNC(=O)CSc1nnc2cc(C)c3ccccc3n12`, the EC50 was > 35 µM (inactive).
`CC1CCN(Cc2c(C(=O)N/N=C/c3cc(Cl)ccc3O)nnn2-c2nonc2N)CC1` was tested, and the EC50 was 13.9 µM.
In the case of `COc1ccc(NC(=O)CCS(=O)(=O)c2ccc3c(c2)CCN3C(C)=O)cc1`, the EC50 is reported as > 35 µM (inactive).
`CCCn1c2ccccc2c2cnn(CC(=O)NC3CCCC(C)C3C)c(=O)c21` (centres undefined) showed an EC50 of 7.26 µM.
For `COc1ccc(N/N=C/c2c(C(=O)O)ccc3ccccc23)cc1`, the EC50 was 6.81 µM.
`Cc1ccc(/C=N/NC(=O)CN2CCN(Cc3ccccc3Cl)CC2)o1` was tested, and the EC50 was > 35 µM (inactive).
Work on `CC(=O)N(O)CCCCCNC(=O)CCC(=O)N(O)CCCCCNC(=O)CCC(=O)N(O)CCCCCN` yielded an EC50 of 5.56 µM.
`O=C(c1ccc(OC2CCN(Cc3ccc(F)cc3)CC2)cc1)N1CCCC1` was tested, and the EC50 was > 35 µM (inactive).
With `O=C1CN(c2ccccc2)C(=O)N1` the EC50 was > 35 µM (inactive).
In the case of `COc1ccc(/C=N/NC(=O)c2ccccc2O)cc1CSc1ccccn1`, the EC50 is reported as > 35 µM (inactive).
In the case of `Cc1ccc2[nH]c(C(=O)N/N=C/c3ccccc3O)c(C)c2c1`, the EC50 is reported as 7.06 µM.
`N#CC(=C=[N-])c1nc2ccccc2nc1-[n+]1cccc(NC(=O)c2ccc(F)cc2)c1` was tested, and the EC50 was > 35 µM (inactive).
`COc1ccccc1-c1cc(C(F)(F)F)nc(S(=O)(=O)CCCC(=O)N2CCOCC2)n1` was tested, and the EC50 was > 35 µM (inactive).
With `COc1cc2ccccc2cc1C(=O)Nc1ccc(C)cc1` the EC50 was > 35 µM (inactive).
For `COc1ccc2c(c1)-c1nc(NC(=O)c3ccco3)sc1CC2`, the EC50 was > 35 µM (inactive).
With `Cc1noc(C)c1COC(=O)C1CC(O)CN1S(=O)(=O)c1ccc(Cl)cc1` (centres undefined) the EC50 was > 35 µM (inactive).
For `c1ccc(-c2nnc(-c3ccccn3)nc2NC2CCCCC2)cc1`, the EC50 was 6.78 µM.
`O=C(Cc1ccc(S(=O)(=O)N2CCOCC2)s1)Nc1ccc(S(=O)(=O)N2CCCCC2)cc1` was tested, and the EC50 was > 35 µM (inactive).
`Cc1ccc(S(=O)(=O)/N=C2/NC(=O)/C(=C/c3cc([N+](=O)[O-])ccc3O)S2)cc1` was tested, and the EC50 was > 35 µM (inactive).
`Cc1ccc2nc(N3CCN(C)CC3)[nH]c2c1` was tested, and the EC50 was > 35 µM (inactive).
For `COc1ccccc1C(=O)Nc1ccccc1SC(=O)c1ccccc1OC`, the EC50 was > 35 µM (inactive).
With `O=C(CSc1nc2ccccc2c(=O)n1-c1ccccc1)NC(=O)CN1CCCC1=O` the EC50 was > 35 µM (inactive).
In the case of `COc1cccc(/C=N/NC(=O)c2[nH]nc3c2CCc2ccccc2-3)c1O`, the EC50 is reported as 1.94 µM.
In the case of `FC(F)(F)c1ccc(CSc2ccccn2)cc1`, the EC50 is reported as > 35 µM (inactive).
`COc1ccc2ccccc2c1/C=N/Nc1cccc(C(=O)O)c1` was tested, and the EC50 was > 35 µM (inactive).
`O=C(C1CCCN(Cc2ccccc2F)C1)N1CCc2ccccc2C1` (centres undefined) was tested, and the EC50 was > 35 µM (inactive).
Compound `CCCC(=O)NC(c1ccc(Cl)cc1)c1ccc2cccnc2c1O` (centres undefined) has an EC50 of 2.22 µM.
`CCN(CC(=O)Nc1ccc2c(c1)OCCO2)CC(=O)Nc1ccc2c(c1)OCO2` was tested, and the EC50 was > 35 µM (inactive).
In the case of `O=C(N/N=C/c1ccccc1O)c1cccc(C(F)(F)F)c1`, the EC50 is reported as 14.3 µM.
`Cn1nnc2cc(C(=O)N3CCC(c4ccccc4)C3)ccc21` (centres undefined) was tested, and the EC50 was > 35 µM (inactive).
For `Cc1ccc(-n2nc3c(=O)n(CC(=O)NCc4ccccc4)nc(C)c3c2C)cc1`, the EC50 was > 35 µM (inactive).
In the case of `CN(C1CCCC1)C1CCN(C(=S)Nc2cc(F)cc(F)c2)CC1`, the EC50 is reported as > 35 µM (inactive).
Work on `O=C(CCCCCCC(=O)Nc1ccccc1)NO` yielded an EC50 of 5.94 µM.
For `CC1CCN(Cc2c(C(=O)N/N=C/c3ccccc3O)nnn2-c2nonc2N)CC1`, the EC50 was > 35 µM (inactive).
Work on `O=C(N/N=C\c1cc(Cl)ccc1O)c1ccc(S(=O)(=O)N2CCCCC2)cc1` yielded an EC50 of 5.75 µM.
In the case of `O=C(N/N=C/c1cc(O)ccc1Br)c1cccnc1`, the EC50 is reported as > 35 µM (inactive).
`Oc1ccc(CN2CCC(Cc3ccccc3)CC2)c2cccnc12` gave an EC50 of 5.17 µM.
In the case of `O=C(CSc1ncn[nH]1)NCCc1ccc(Cl)cc1Cl`, the EC50 is reported as > 35 µM (inactive).
For `Cc1ccc(-c2cc(C(=O)N3CCCCCC3)no2)cc1`, the EC50 was > 35 µM (inactive).
`COc1cccc(/C=N/Nc2ncnc3scc(-c4ccccc4)c23)c1O` showed an EC50 of 1.27 µM.
For `NC(=O)CSc1nnc2ccc(-c3ccc(Cl)cc3)nn12`, the EC50 was > 35 µM (inactive).
With `Cc1occc1C(=O)N/N=C/c1c(O)ccc2ccccc12` the EC50 was 11.7 µM.
With `CCN(CC)CCNC1=CC(=O)OC12CCCCC2` the EC50 was > 35 µM (inactive).
With `O=C(NC1=NCCS1)c1cccc(NC(=O)c2ccco2)c1` the EC50 was > 35 µM (inactive).
`Cc1onc(-c2ccccc2)c1C(=O)Nc1ccc(S(=O)(=O)N2CCCC2)cc1` was tested, and the EC50 was > 35 µM (inactive).
For `CCCCn1c(N)c(N(CC)C(=O)c2cc(OC)cc(OC)c2)c(=O)[nH]c1=O`, the EC50 was > 35 µM (inactive).
With `Cc1nc2ccccc2nc1N/N=C/c1ccc(O)cc1O` the EC50 was 36.5 µM.
